# Entries after “also recorded” stand apart in the source; their conditions may differ.
# Assays:
# OVCAR-8 cells = assay: Clonogenic (colony formation) assay in OVCAR-8 cells; conditions: for Sensitivity of BRCA1-depleted cells to the agent versus control luciferase siRNA cells: OVCAR-8, BRCA1 siRNAs, colony formation 8-10 days (FIG. 4A, 14, 22A); for Sensitization to the agent by NNMT overexpression: OVCAR-8 clones stably expressing Myc-DDK-NNMT versus empty vector, 8-10 days (FIG. 16, 24)
# Protocol: A portion of the cells used in A and C were subjected to colony formation assays using olaparib, a PARP inhibitor (as a positive control for HR deficiency).
# (A-C) OVCAR-8 and PEA1 cells were transfected with control luciferase (siLuc) or BRCA1 siRNAs. 48 hours later, the cells were trypsinized, immunoblotted for BRCA1 and HSP90 (bottom panels), and subjected to colony formation assays.
# The cells were cultured for 8-10 days to allow colony formation.
# PEA1 cells = assay: Clonogenic (colony formation) assay in PEA1 cells; conditions: PEA1, BRCA1 siRNAs, colony formation 8-10 days (FIG. 4B, 14, 22B)
# Protocol: OVCAR-8 (A) and PEA1 (B) cells were transfected with control luciferase (Luc) or BRCA1 siRNAs. 48 hours later, the cells were trypsinized, plated in 6-well plates, and subjected to colony formation assays. The indicated concentrations of ceritinib was added 12 hours after plating.
# [1] = system: HCT-116 colon cancer cells; assay: Colony formation assay in HCT-116 colon cancer clones (empty vector or Myc-DDK-NNMT); format: cell-based; conditions: HCT-116 Myc-NNMT clones #4, #8, #22 versus empty vector, 8-10 days, n=1 (FIG. 26)
# Protocol: Clones of HCT-116 colon cancer cells stably transfected with empty vector (pcDNA3) or the Myc-DDK-NNMT expression plasmid (Myc-NNMT Clone #4, #8, #22) were plated as single cells, allowed to adhere for 12 hours, and then treated with ceritinib. […] Data are means±SEM from triplicate wells, n=1 experiment.
# Clonogenic assays were performed as described elsewhere (see, e.g., Wagner et al., Mol. Pharmacol., 76:208-14 (2009)).
structure (smiles),measurement,setting,value
O=C(Oc1cccc(F)c1OC(=O)c1cccc(O)c1)c1cccc(O)c1 [WZB117],Sensitivity of BRCA1-depleted cells to the agent versus control luciferase siRNA cells,OVCAR-8 cells,sensitized
same,Sensitivity of BRCA1-depleted cells to the agent versus control luciferase siRNA cells,PEA1 cells,sensitized
Cc1cc(Nc2ncc(Cl)c(Nc3ccccc3S(=O)(=O)C(C)C)n2)c(OC(C)C)cc1C1CCNCC1 [ceritinib],Sensitivity of BRCA1-depleted cells to the agent versus control luciferase siRNA cells,OVCAR-8 cells,sensitizes
same,Sensitization to the agent by NNMT overexpression,OVCAR-8 cells,sensitizes
same,Sensitivity of BRCA1-depleted cells to the agent versus control luciferase siRNA cells,PEA1 cells,sensitizes
same,Sensitization to the agent by NNMT overexpression,[1],sensitizes
O=C(c1cc(Cc2n[nH]c(=O)c3ccccc23)ccc1F)N1CCN(C(=O)C2CC2)CC1 [olaparib],Sensitization to the agent by depletion of BRCA2 or RAD51,"OVCAR-8 cells; OVCAR-8, BRCA2 or RAD51 siRNAs (FIG. 12B, 12D, 15)",increased sensitivity; also recorded: did sensitize
CN(C)c1cc(NC(=O)CNC(C)(C)C)c(O)c2c1C[C@H]1C[C@H]3[C@H](N(C)C)C(O)=C(C(N)=O)C(=O)[C@@]3(O)C(O)=C1C2=O [tigecycline],Sensitivity of BRCA1-depleted cells to the agent versus control luciferase siRNA cells,OVCAR-8 cells,sensitized
same,Sensitization to the agent by NNMT overexpression,OVCAR-8 cells,sensitizes
same,Sensitivity of BRCA1-depleted cells to the agent versus control luciferase siRNA cells,PEA1 cells,sensitized

# From patent publication US20210386750A1, “METHODS AND MATERIALS FOR TREATING CANCER” (Mayo Foundation for Medical Education and Research, priority 2018, published 2021)
